This note sets out measurements from patent publication US20230348426A1, “OXOPYRROLIDINE FPR2 AGONISTS” (Bristol-Myers Squibb Company, priority 2020, published 2023).

The target in test [1] is human FPR2 (Homo sapiens (Human), UniProt P25090). In words: FPR2 cyclic adenosine monophosphate (cAMP) assay. It is filed as cell-based. The following applies: CHO cells overexpressing human FPR2; forskolin 5 µM; inhibition of cAMP production; read-out: hFPR2 cAMP2 EC50. The source says:
(§1) N-formyl peptide receptors (FPRs) are a family of chemo attractant receptors that facilitate leukocyte response during inflammation. FPRs belong to the seven-transmembrane G protein-coupled receptor superfamily and are linked to inhibitory G-proteins (Gi). Three family members (FPR1, FPR2 and FPR3) have been identified in humans and are predominantly found in myeloid cells with varied distribution and have also been reported in multiple organs and tissues. After agonist binding, the FPRs activate a multitude of physiological pathways, such as intra cellular signaling transduction, Ca^2+ mobilization and transcription. The family interacts with a diverse set of ligands that includes proteins, polypeptides and fatty acid metabolites which activate both pro-inflammatory and pro-resolution downstream responses. FPR2 and FPR1 Cyclic Adenosine Monophosphate (cAMP) Assays were used to measure the activity of the compounds in this patent.
(§2) FPR2 and FPR1 Cyclic Adenosine Monophosphate (cAMP) Assays. A mixture of forskolin (5 µM final for FPR2 or 10 µM final for FPR1) and IBMX (200 µM final) were added to 384-well Proxiplates (Perkin-Elmer) pre-dotted with test compounds in DMSO (1% final) at final concentrations in the range of 0.020 nM to 100 µM. Chinese Hamster Ovary cells (CHO) overexpressing human FPR1 or human FPR2 receptors were cultured in F-12 (Ham’s) medium supplemented with 10% qualified FBS, 250 µg/ml zeocin and 300 µg/ml hygromycin (Life Technologies). Reactions were initiated by adding 2,000 human FPR2 cells per well or 4,000 human FPR1 cells per well in Dulbecco’s PBS (with calcium and magnesium) (Life Technologies) supplemented with 0.1% BSA (Perkin-Elmer). The reaction mixtures were incubated for 30 min at room temperature. The level of intracellular cAMP was determined using the HTRF HiRange cAMP assay reagent kit (Cisbio) according to manufacturer’s instruction. Solutions of cryptate conjugated anti-cAMP and d2 flurorophore-labelled cAMP were made in a supplied lysis buffer separately. Upon completion of the reaction, the cells were lysed with equal volume of the d2-cAMP solution and anti-cAMP solution. After a 1-h room temperature incubation, time-resolved fluorescence intensity was measured using the Envision (Perkin-Elmer) at 400 nm excitation and dual emission at 590 nm and 665 nm. A calibration curve was constructed with an external cAMP standard at concentrations ranging from 1 µM to 0.1 pM by plotting the fluorescent intensity ratio from 665 nm emission to the intensity from the 590 nm emission against cAMP concentrations. The potency and activity of a compound to inhibit cAMP production was then determined by fitting to a 4-parametric logistic equation from a plot of cAMP level versus compound concentrations.
(In general: Cyclic AMP is a second messenger, typically raised through Gs and lowered through Gi signalling.)

Test [2] has as its target human FPR1 (Homo sapiens (Human), UniProt P21462). Nature of the test: FPR1 cyclic adenosine monophosphate (cAMP) assay. It is filed as cell-based. The following applies: CHO cells overexpressing human FPR1; forskolin 10 µM; inhibition of cAMP production; read-out: hFPR1 cAMP EC50.
Text: as §1
as §2, with “After a 1-h room temperature incubation, time-resolved fluorescence intensity was measured using the Envision (Perkin-Elmer) at 400 nm excitation and dual emission at 590 nm and 665 nm. A calibration curve was constructed with an external cAMP standard at concentrations ranging from 1 µM to 0.1 pM by plotting the fluorescent intensity ratio from 665 nm emission to the intensity from the 590 nm emission against cAMP concentrations.” left out

human FPR2, sequence (P25090 whole entry): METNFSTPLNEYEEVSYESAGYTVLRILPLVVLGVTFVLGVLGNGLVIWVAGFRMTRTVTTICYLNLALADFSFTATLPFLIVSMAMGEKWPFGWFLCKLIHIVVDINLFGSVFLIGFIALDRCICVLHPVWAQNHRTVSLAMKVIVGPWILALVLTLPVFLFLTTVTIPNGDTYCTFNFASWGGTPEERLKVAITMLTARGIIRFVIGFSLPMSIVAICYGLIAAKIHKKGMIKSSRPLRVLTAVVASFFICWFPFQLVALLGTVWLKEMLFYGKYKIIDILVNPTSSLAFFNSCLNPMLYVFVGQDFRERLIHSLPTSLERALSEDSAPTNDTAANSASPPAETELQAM
human FPR1, sequence (P21462 whole entry): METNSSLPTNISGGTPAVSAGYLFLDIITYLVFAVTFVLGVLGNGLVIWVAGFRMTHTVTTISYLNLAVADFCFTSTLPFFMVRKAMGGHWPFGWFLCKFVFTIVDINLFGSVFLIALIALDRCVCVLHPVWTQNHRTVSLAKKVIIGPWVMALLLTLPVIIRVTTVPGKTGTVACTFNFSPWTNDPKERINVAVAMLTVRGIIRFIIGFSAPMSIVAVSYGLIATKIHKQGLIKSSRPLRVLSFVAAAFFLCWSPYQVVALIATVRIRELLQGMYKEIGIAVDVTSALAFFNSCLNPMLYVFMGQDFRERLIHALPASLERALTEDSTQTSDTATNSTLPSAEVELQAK

With `COc1cc(F)c([C@@H]2CN(c3cccn(CC(O)C(F)(F)F)c3=O)C(=O)[C@H]2NC(=O)c2ccc(OC(F)F)cc2)c(F)c1` (single isomer, unassigned) [Example 4], the concentration giving a half-maximal response (EC50) in test [1] is 1.7 nM; in test [2] it was 290 nM.

In the case of `COc1cc(F)c([C@@H]2CN(c3cccn(CC(O)C(F)(F)F)c3=O)C(=O)[C@H]2NC(=O)c2ccc(OC(F)F)cc2)c(F)c1` (single isomer, unassigned) [Example 5], the EC50 in test [1] was found to be 2.9 nM; in test [2], 14 nM.

Take `COc1cc(F)c([C@@H]2CN(c3cccnc3C#N)C(=O)[C@H]2NC(=O)c2ccc(OC(F)F)cc2)c(F)c1` [Example 1, N-((3S,4R)-1-(2-cyanopyridin-3-yl)-4-(2,6-difluoro-4-methoxyphenyl)-2-oxopyrrolidin-3-yl)-4-(difluoromethoxy)benzamide]: the concentration giving a half-maximal response (EC50) in test [1] is 28 nM; in test [2], 4200 nM.

As for `COc1cc(F)c([C@@H]2CN(CC3CC3)C(=O)[C@H]2NC(=O)c2ccc(OC(F)F)cc2)c(F)c1` [Example 3, N-((3S,4R)-1-(cyclopropylmethyl)-4-(2,6-difluoro-4-methoxyphenyl)-2-oxopyrrolidin-3-yl)-4-(difluoromethoxy)benzamide], the EC50 in test [1] was found to be 29 nM; in test [2], 1700 nM.

Turning to `COc1cc(F)c([C@@H]2CN(c3nc(Cl)ccc3C#N)C(=O)[C@H]2NC(=O)c2ccc(OC(F)F)cc2)c(F)c1` [Example 6], the values for the EC50 in test [1] and in test [2] were 5.1 nM and 650 nM, respectively.

In the case of `COc1cc(F)c([C@@H]2CN(c3ncccc3C(F)(F)F)C(=O)[C@H]2NC(=O)c2ccc(OC(F)F)cc2)c(F)c1` [Example 7], the figures for the EC50 in test [1] and in test [2] were 10 nM and 1300 nM, respectively.

As for `COc1cc(F)c([C@@H]2CN(c3cc(OC)ccc3F)C(=O)[C@H]2NC(=O)c2ccc(OC(F)(F)F)cc2)c(F)c1` [Example 8], the concentration for a half-maximal effect (EC50) in test [1] was 15 nM; in test [2] it was 280 nM.

Take `COc1cc(F)c([C@@H]2CN(c3cccc(=O)n3C)C(=O)[C@H]2NC(=O)c2ccc(OC(F)F)cc2)c(F)c1` [Example 10]: the half-maximal effective concentration (EC50) in test [1] came out at 50 nM; in test [2], 290 nM.

Regarding `COc1cc(F)c([C@@H]2CN(c3cccc(=O)n3C)C(=O)[C@H]2NC(=O)c2ccc(OC(F)(F)F)cc2)c(F)c1` [Example 11], the concentration giving a half-maximal response (EC50) came to 31 nM in test [1] and 86 nM in test [2].

Regarding `COc1cc(F)c([C@@H]2CN(c3cc(Cl)cc(C(F)(F)F)c3)C(=O)[C@H]2NC(=O)c2ccc(OC(F)F)cc2)c(F)c1` [Example 12], the results for the EC50 in test [1] and in test [2] were 91 nM and greater than 10000 nM, respectively.

On to `COc1cc(F)c([C@@H]2CN(c3cc(P(C)(C)=O)ccn3)C(=O)[C@H]2NC(=O)c2ccc(OC(F)(F)F)cc2)c(F)c1` [Example 13], for which the results for the concentration for a half-maximal effect (EC50) in test [1] and in test [2] were 45 nM and 85 nM, respectively.

`COc1cc(F)c([C@@H]2CN(c3cc(F)cc(OC(C)C)c3)C(=O)[C@H]2NC(=O)c2ccc(OC(F)(F)F)cc2)c(F)c1` [Example 14]: the EC50 in test [1] came out at 37 nM; in test [2], 43 nM.

Turning to `COc1cc(F)c([C@@H]2CN(c3ncccc3C#N)C(=O)[C@H]2NC(=O)c2ccc(OC(F)(F)F)cc2)c(F)c1` [Example 15], the EC50 came out at 22 nM in test [1] and 1100 nM in test [2].

For the compound `COc1cc(F)c([C@@H]2CN(Cc3ccccc3P(C)(C)=O)C(=O)[C@H]2NC(=O)c2ccc(OC(F)(F)F)cc2)c(F)c1` [Example 17], the EC50 in test [1] was 36 nM; in test [2], 69 nM.

As for `COc1cc(F)c([C@@H]2CN(Cc3ccccc3P(C)(C)=O)C(=O)[C@H]2NC(=O)c2ccc(OC(F)F)cc2)c(F)c1` [Example 18], the EC50 in test [1] is 37 nM; in test [2], 200 nM.

As to `COc1cc(F)c([C@@H]2CN(c3ccccc3P(C)(C)=O)C(=O)[C@H]2NC(=O)c2ccc(OC(F)(F)F)cc2)c(F)c1` [Example 19], the figures for the EC50 in test [1] and in test [2] were 24 nM and 540 nM, respectively.

Consider `COc1cc(F)c([C@@H]2CN(CC3CC3)C(=O)[C@H]2NC(=O)c2ccc(OC(F)(F)F)cc2)c(F)c1` [Example 20], for which the 50% effective concentration (EC50) in test [1] is 32 nM; in test [2], 560 nM.

For the compound `COc1cc(F)c([C@@H]2CN(c3cccnc3C#N)C(=O)[C@H]2NC(=O)c2ccc(OC(F)(F)F)cc2)c(F)c1` [Example 21], the results for the concentration giving a half-maximal response (EC50) in test [1] and in test [2] were 35 nM and 2300 nM, respectively.

Consider `COc1cc(F)c([C@@H]2CN(c3ncccc3P(C)(C)=O)C(=O)[C@H]2NC(=O)c2ccc(OC(F)(F)F)cc2)c(F)c1` [Example 22], for which the concentration for a half-maximal effect (EC50) is 13 nM in test [1] and 3200 nM in test [2].

As to `COc1ccnc(N2C[C@@H](c3c(F)cc(OC)cc3F)[C@H](NC(=O)c3ccc(OC(F)(F)F)cc3)C2=O)c1` [Example 23], the EC50 in test [1] is 28 nM; in test [2], 1500 nM.

In the case of `COc1cc(F)c([C@@H]2CN(c3cccc(C(F)F)n3)C(=O)[C@H]2NC(=O)c2ccc(OC(F)(F)F)cc2)c(F)c1` [Example 24], the EC50 was 45 nM in test [1] and 300 nM in test [2].

For the compound `COc1cc(F)c([C@@H]2CN(c3ncccc3P(C)(C)=O)C(=O)[C@H]2NC(=O)c2ccc(OC(F)F)cc2)c(F)c1` [Example 25], the half-maximal effective concentration (EC50) in test [1] is 35 nM; in test [2], greater than 10000 nM.

Regarding `COc1cc(F)c([C@@H]2CN(c3ccc(=O)n(C)c3)C(=O)[C@H]2NC(=O)c2ccc(OC(F)(F)F)cc2)c(F)c1` [Example 26], the 50% effective concentration (EC50) in test [1] was 35 nM; in test [2] it was 27 nM.

As for `COc1cc(F)c([C@@H]2CN(c3ncccc3CO)C(=O)[C@H]2NC(=O)c2ccc(OC(F)(F)F)cc2)c(F)c1` [Example 27], the results for the half-maximal effective concentration (EC50) in test [1] and in test [2] were 27 nM and 570 nM, respectively.

For the compound `COc1cc(F)c([C@@H]2CN(c3ncccc3F)C(=O)[C@H]2NC(=O)c2ccc(OC(F)(F)F)cc2)c(F)c1` [Example 28], the EC50 in test [1] is 7 nM; in test [2] it was 1100 nM.

As to `COc1cc(F)c([C@@H]2CN(c3cc(F)cc(OC(C)C)c3)C(=O)[C@H]2NC(=O)c2ccc(OC(F)F)cc2)c(F)c1` [Example 29], the results for the concentration for a half-maximal effect (EC50) in test [1] and in test [2] were 51 nM and 110 nM, respectively.

Take `COc1cc(F)c([C@@H]2CN(c3cccnc3P(C)(C)=O)C(=O)[C@H]2NC(=O)c2ccc(OC(F)F)cc2)c(F)c1` [Example 30]: the 50% effective concentration (EC50) in test [1] turned out to be 10 nM; in test [2] it was 750 nM.

As to `COc1cc(F)c([C@@H]2CN(c3c(C)ccn(CC(C)O)c3=O)C(=O)[C@H]2NC(=O)c2ccc(OC(F)(F)F)cc2)c(F)c1` (some centres unmarked) [Example 400], the EC50 in test [1] is 2.9 nM.

On to `COCC(CO)n1ccc(C)c(N2C[C@@H](c3c(F)cc(OC)cc3F)[C@H](NC(=O)c3ccc(OC(F)(F)F)cc3)C2=O)c1=O` (some centres unmarked) [Example 429], for which, in test [1], the EC50 was determined as 1.5 nM.

For the compound `COc1ccc([C@@H]2CN(c3ccnn(CCC(F)(F)F)c3=O)C(=O)[C@H]2NC(=O)c2ccc(Cl)cc2)cc1` [Example 671], the concentration giving a half-maximal response (EC50) in test [1] was 5.8 nM.

With `COc1cc(F)c([C@@H]2CN(c3c(C)ccn(CC(O)C4CC4)c3=O)C(=O)[C@H]2NC(=O)c2ccc(OC(F)(F)F)cc2)c(F)c1` (some centres unmarked) [Example 683], in test [1], the EC50 turned out to be 13 nM.

As to `COc1cc(F)c([C@@H]2CN(c3c(C)ccn(CC(O)C4CC4)c3=O)C(=O)[C@H]2NC(=O)c2ccc(OC(F)(F)F)cc2)c(F)c1` (some centres unmarked) [Example 686], the EC50 in test [2] was found to be 0.7 nM.

What is called EC50 is the midpoint of the concentration-response curve.
